From article PMC7914897, “Cytotoxic Potential of a-Azepano- and 3-Amino-3,4-SeCo-Triterpenoids” (International Journal of Molecular Sciences, 2021)

Tests used:
[1] = system: NCI-H226 (NSC lung cancer); assay: NCI-60 screen (SRB, 48 h); conditions: Homo sapiens
SNB-19 (CNS cancer) = assay: NCI-60 screen (SRB, 48 h); conditions: Homo sapiens
HCT-15 (Colon cancer) = assay: NCI-60 screen (SRB, 48 h); conditions: Homo sapiens
OVCAR-3 (Ovarian cancer) = assay: cells; conditions: Homo sapiens
IGROV1 (Ovarian cancer) = assay: NCI-60 screen (SRB, 48 h); conditions: Homo sapiens
DU-145 (Prostate cancer) = assay: NCI-60 screen (SRB, 48 h); conditions: Homo sapiens
KM12 (Colon cancer) = assay: NCI-60 screen (SRB, 48 h); conditions: Homo sapiens
HT29 (Colon cancer) = assay: NCI-60 screen (SRB, 48 h); conditions: Homo sapiens
MDA-MB-435 (Melanoma) = assay: NCI-60 screen (SRB, 48 h); assay type: cell-based; conditions: Homo sapiens
COLO 205 (Colon cancer) = assay: NCI-60 screen (SRB, 48 h); conditions: Homo sapiens
Melanoma subpanel = assay: NCI-60 screen, subpanel; conditions: Homo sapiens
TK-10 (Renal cancer) = assay: NCI-60 screen (SRB, 48 h); conditions: Homo sapiens
UO-31 (Renal cancer) = assay: NCI-60 screen (SRB, 48 h); conditions: Homo sapiens
Prostate cancer subpanel = assay: NCI-60 screen, subpanel; conditions: Homo sapiens
K-562 (Leukemia) = assay: NCI-60 screen (SRB, 48 h); conditions: Homo sapiens
HS 578T (Breast cancer) = assay: NCI-60 screen (SRB, 48 h); conditions: Homo sapiens
CCRF-CEM (Leukemia) = assay: NCI-60 screen (SRB, 48 h); conditions: Homo sapiens
Leukemia subpanel = assay: cells; conditions: Homo sapiens
HCC-2998 (Colon cancer) = assay: NCI-60 screen (SRB, 48 h)
MCF7 (Breast cancer) = assay: NCI-60 screen (SRB, 48 h); conditions: Homo sapiens
UACC-257 (Melanoma) = assay: NCI-60 screen (SRB, 48 h); conditions: Homo sapiens
MOLT-4 (Leukemia) = assay: NCI-60 screen (SRB, 48 h); conditions: Homo sapiens
SW-620 (Colon cancer) = assay: NCI-60 screen (SRB, 48 h); conditions: Homo sapiens
SK-MEL-5 (Melanoma) = assay: NCI-60 screen (SRB, 48 h); conditions: Homo sapiens
HOP-92 (NSC lung cancer) = assay: NCI-60 screen (SRB, 48 h); conditions: Homo sapiens
T-47D (Breast cancer) = assay: NCI-60 screen (SRB, 48 h); conditions: Homo sapiens, T47D
MALME-3M (Melanoma) = assay: NCI-60 screen (SRB, 48 h); conditions: Homo sapiens

## C=C(C)[C@@H]1CC[C@]2(C)[C@H](CC=C3[C@@H]4[C@@H](C)[C@H](C)CC[C@]4(CO)CC[C@]32C)[C@@]1(C)CCCN [Compound 19]
[1]; NCI-H226
  GI50: 6.72 µM
[1]; NCI-H226, 48 h, read-out: TGI
  IC (TGI): 18.3 µM
[1]; NCI-H226, read-out: LC50
  CC50: 49.9 µM
SNB-19 (CNS cancer); SNB-19
  GI50: 2.14 µM
SNB-19 (CNS cancer); SNB-19, 48 h, read-out: TGI
  IC (TGI): 8.11 µM
SNB-19 (CNS cancer); SNB-19, read-out: LC50
  CC50: 25 µM
HCT-15 (Colon cancer); HCT-15
  GI50: 0.84 µM
HCT-15 (Colon cancer); HCT-15, 48 h, read-out: TGI
  IC (TGI): 1.76 µM
HCT-15 (Colon cancer); HCT-15, read-out: LC50
  CC50: 3.69 µM
OVCAR-3 (Ovarian cancer); OVCAR-3
  GI50: 0.93 µM
OVCAR-3 (Ovarian cancer); OVCAR-3, 48 h, read-out: TGI
  IC (TGI): 1.79 µM
OVCAR-3 (Ovarian cancer); OVCAR-3, read-out: LC50
  CC50: 3.44 µM
IGROV1 (Ovarian cancer); IGROV-1
  GI50: 0.89 µM
IGROV1 (Ovarian cancer); IGROV-1, 48 h, read-out: TGI
  IC (TGI): 1.67 µM
IGROV1 (Ovarian cancer); IGROV-1, read-out: LC50
  CC50: 3.14 µM
DU-145 (Prostate cancer); DU-145
  GI50: 1.21 µM
DU-145 (Prostate cancer); DU-145, 48 h, read-out: TGI
  IC (TGI): 3.01 µM
DU-145 (Prostate cancer); DU-145, read-out: LC50
  CC50: 11.3 µM
KM12 (Colon cancer); KM12
  GI50: 0.91 µM
KM12 (Colon cancer); KM12, 48 h, read-out: TGI
  IC (TGI): 1.65 µM
KM12 (Colon cancer); KM12, read-out: LC50
  CC50: 3 µM
HT29 (Colon cancer); HT-29
  GI50: 0.99 µM
HT29 (Colon cancer); HT-29, 48 h, read-out: TGI
  IC (TGI): 2.04 µM
HT29 (Colon cancer); HT-29, read-out: LC50
  CC50: 4.22 µM
MDA-MB-435 (Melanoma); MDA-MB-435
  GI50: 0.95 µM
MDA-MB-435 (Melanoma); MDA-MB-435, 48 h, read-out: TGI
  IC (TGI): 1.81 µM
MDA-MB-435 (Melanoma); MDA-MB-435, read-out: LC50 (the source's name)
  CC50: 3.45 µM
COLO 205 (Colon cancer); COLO 205
  GI50: 0.9 µM
COLO 205 (Colon cancer); COLO 205, 48 h, read-out: TGI
  IC (TGI): 1.94 µM
COLO 205 (Colon cancer); COLO 205, read-out: LC50
  CC50: 4.17 µM
Melanoma subpanel; 48 h, read-out: TGI MG_MID
  IC (TGI): 3.3 µM
Melanoma subpanel; read-out: GI50 MG_MID
  GI50: 1.54 µM
Melanoma subpanel; read-out: LC50 MG_MID
  CC50: 7.68 µM
TK-10 (Renal cancer); TK-10
  GI50: 2.21 µM
TK-10 (Renal cancer); TK-10, 48 h, read-out: TGI
  IC (TGI): 9.75 µM
TK-10 (Renal cancer); TK-10, read-out: LC50
  CC50: 24.6 µM
UO-31 (Renal cancer); UO-31
  GI50: 0.82 µM
UO-31 (Renal cancer); UO-31, 48 h, read-out: TGI
  IC (TGI): 2.24 µM
UO-31 (Renal cancer); UO-31, read-out: LC50
  CC50: 9.64 µM
Prostate cancer subpanel; 48 h, read-out: TGI MG_MID
  IC (TGI): 5.25 µM
Prostate cancer subpanel; read-out: GI50 MG_MID
  GI50: 1.43 µM
Prostate cancer subpanel; read-out: LC50 MG_MID
  CC50: 18.7 µM
K-562 (Leukemia); K562
  GI50: 1.22 µM
K-562 (Leukemia); K562, 48 h, read-out: TGI
  IC (TGI): 3.63 µM
K-562 (Leukemia); K562, read-out: LC50
  CC50: > 50 µM
HS 578T (Breast cancer)
  GI50: 0.99 µM
HS 578T (Breast cancer); 48 h, read-out: TGI
  IC (TGI): 2.23 µM
HS 578T (Breast cancer); read-out: LC50
  CC50: 5 µM
CCRF-CEM (Leukemia)
  GI50: 1.31 µM
CCRF-CEM (Leukemia); 48 h, read-out: TGI
  IC (TGI): 5.26 µM
CCRF-CEM (Leukemia); read-out: LC50
  CC50: > 50 µM
Leukemia subpanel; 48 h, read-out: TGI MG_MID
  IC (TGI): 3.81 µM
Leukemia subpanel; read-out: GI50 MG_MID
  GI50: 1.23 µM
Leukemia subpanel; read-out: LC50 MG_MID
  CC50: 33.2 µM
HCC-2998 (Colon cancer); HCC-2998, 1 dose 10 µM
  Growth % of the Most Sensitive Cell Lines: −93.35%
HCC-2998 (Colon cancer); Homo sapiens, HCC 2998
  GI50: 0.87 µM
HCC-2998 (Colon cancer); Homo sapiens, HCC 2998, 48 h, read-out: TGI
  IC (TGI): 1.62 µM
HCC-2998 (Colon cancer); Homo sapiens, HCC 2998, read-out: LC50
  CC50: 3.02 µM
MCF7 (Breast cancer); MCF7
  GI50: 0.83 µM
MCF7 (Breast cancer); MCF7, 48 h, read-out: TGI
  IC (TGI): 1.73 µM
UACC-257 (Melanoma); UACC-257
  GI50: 1.07 µM
UACC-257 (Melanoma); UACC-257, 48 h, read-out: TGI
  IC (TGI): 2.21 µM
UACC-257 (Melanoma); UACC-257, read-out: LC50
  CC50: 4.68 µM
MOLT-4 (Leukemia); MOLT-4
  GI50: 1.35 µM
MOLT-4 (Leukemia); MOLT-4, 48 h, read-out: TGI
  IC (TGI): 4.07 µM
MOLT-4 (Leukemia); MOLT-4, read-out: LC50
  CC50: 27.9 µM
SW-620 (Colon cancer); SW-620
  GI50: 1.01 µM
SW-620 (Colon cancer); SW-620, 48 h, read-out: TGI
  IC (TGI): 2.11 µM
SW-620 (Colon cancer); SW-620, read-out: LC50
  CC50: 4.39 µM
SK-MEL-5 (Melanoma); SK-MEL-5
  GI50: 0.91 µM
SK-MEL-5 (Melanoma); SK-MEL-5, 48 h, read-out: TGI
  IC (TGI): 1.65 µM
SK-MEL-5 (Melanoma); SK-MEL-5, read-out: LC50
  CC50: 3 µM
HOP-92 (NSC lung cancer); HOP-92
  GI50: 1.04 µM
HOP-92 (NSC lung cancer); HOP-92, 48 h, read-out: TGI
  IC (TGI): 3.46 µM
HOP-92 (NSC lung cancer); HOP-92, read-out: LC50
  CC50: 23.1 µM
T-47D (Breast cancer)
  GI50: 1.51 µM
T-47D (Breast cancer); 48 h, read-out: TGI
  IC (TGI): 5.15 µM
T-47D (Breast cancer); read-out: LC50
  CC50: > 50 µM
MALME-3M (Melanoma)
  GI50: 0.73 µM
MALME-3M (Melanoma); 48 h, read-out: TGI
  IC (TGI): 1.42 µM
MALME-3M (Melanoma); read-out: LC50
  CC50: 2.74 µM
